The first assay relates to IL-1β production in PMA-differentiated THP-1 cells. Description: IL-1β production in PMA-differentiated THP-1 cells stimulated with gramicidin (hTHP-1 assay containing 2% fetal bovine serum). The class given is cell-based, human. The settings on record: Homo sapiens, THP-1, Table B1; 2% fetal bovine serum; cells printed as numeric bound; read-out: hTHP-1 IC50 (Average IC50 of compounds in hTHP-1 assay). The method, boiled down:
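THP-1 cells were differentiated with PMA 20 ng/ml for 16-18 h, then plated at 50,000 cells/well in RPMI with 2% FBS. They were preincubated 1 h with compound (100–0.0017 μM final, 0.37% DMSO), then stimulated with gramicidin 5 μM for 2 h. Supernatant IL-1β was measured by HTRF.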
One may read the IC50 as the point on the concentration scale where inhibition reaches its midpoint. As for `CC(C)c1cc2c(c(C(C)C)c1CC(=O)N=[S@@](N)(=O)c1cnc(C(C)(C)O)s1)COC2(C)C` [Example 340, (R)-N-(amino(2-(2-hydroxypropan-2-yl)thiazol-5-yl)(oxo)-λ^6-sulfaneylidene)-2-(4,6-diisopropyl-1,1-dimethyl-1,3-dihydroisobenzofuran-5-yl)acetamide], the IC50 was above 30 µM.

The same assay, now with this note: Homo sapiens, THP-1, Table B1; 2% fetal bovine serum; class symbols; read-out: hTHP-1 IC50 (Average IC50 of compounds in hTHP-1 assay).
Turning to `CC(C)c1cc2c(c(C(C)C)c1CC(=O)N=S(N)(=O)c1cnc(C(C)(O)CO)s1)COC2` (stereo not drawn) [Example 252, N-(amino(2-(1,2-dihydroxypropan-2-yl)thiazol-5-yl) (oxo)-λ^6-sulfaneylidene)-2-(4,6-diisopropyl-1,3-dihydroisobenzofuran-5-yl)acetamide], the IC50 was in the range of 1 to 5 µM.

With `CC(C)c1cc(-c2ccc3c(c2)CCOC3)cc(C(C)C)c1CC(=O)N=S(N)(=O)c1cnc(C(C)(O)CO)s1` (stereo not drawn) [Example 253, N-(amino(2-(1,2-dihydroxypropan-2-yl)thiazol-5-yl) (oxo)-λ^6-sulfaneylidene)-2-(4-(isochroman-6-yl)-2,6-diisopropylphenyl)acetamide], the IC50 fell in the range of 1 to 5 µM.

For `CNCc1ccc(S(N)(=O)=NC(=O)Cc2c(C(C)C)cc(C(F)F)nc2C(C)C)cc1` (stereo not drawn) [Example 254, N-(amino(4-((methylamino)methyl)phenyl)(oxo)-λ^6-sulfaneylidene)-2-(6-(difluoromethyl)-2,4-diisopropylpyridin-3-yl)acetamide], the IC50 lay within 5 to 30 µM.

With `CNCc1ccc(S(N)(=O)=NC(=O)Cc2c(C(C)C)cc(C(F)F)cc2C(C)C)cc1` (stereo not drawn) [Example 255, N-(amino(4-((methylamino)methyl)phenyl)(oxo)-λ^6-sulfaneylidene)-2-(4-(difluoromethyl)-2,6-diisopropylphenyl)acetamide], the IC50 was in the range of 5 to 30 µM.

Take `CC(C)c1cc2c(c(C(C)C)c1CC(=O)N=S(N)(=O)c1cnc(C(C)(C)O)s1)COC2=O` (stereo not drawn) [Example 256, N-(amino(2-(2-hydroxypropan-2-yl)thiazol-5-yl) (oxo)-λ^6-sulfaneylidene)-2-(4,6-diisopropyl-1-oxo-1,3-dihydroisobenzofuran-5-yl)acetamide]: the IC50 is 5 to 30 µM.

For the molecule `CC(C)c1cc(C(F)F)cc(C(C)C)c1CC(=O)N=S(N)(=O)c1ccc(CN(C)C)cc1` (stereo not drawn) [Example 257, N-(amino(4-((dimethylamino)methyl)phenyl) (oxo)-λ^6-sulfaneylidene)-2-(4-(difluoromethyl)-2,6-diisopropylphenyl)acetamide], the IC50 lay within 1 to 5 µM.

In the case of `CC(C)c1cc(C(F)F)nc(C(C)C)c1CC(=O)N=S(N)(=O)c1ccc(CN(C)C)cc1` (stereo not drawn) [Example 258, N-(amino(4-((dimethylamino)methyl)phenyl) (oxo)-λ^6-sulfaneylidene)-2-(6-(difluoromethyl)-2,4-diisopropylpyridin-3-yl)acetamide], the IC50 fell in the range of 1 to 5 µM.

`CCc1c2c(cc(C(C)C)c1CC(=O)N=S(N)(=O)c1cnc(C(C)(C)O)s1)COC2` (stereo not drawn) [Example 259, N-(amino(2-(2-hydroxypropan-2-yl)thiazol-5-yl)(oxo)-λ^6-sulfaneylidene)-2-(4-ethyl-6-isopropyl-1,3-dihydroisobenzofuran-5-yl)acetamide]: the IC50 is 5 to 30 µM.

In the case of `CCc1cc2c(c(C(C)C)c1CC(=O)N=S(N)(=O)c1cnc(C(C)(C)O)s1)COC2` (stereo not drawn) [Example 260, N-(amino(2-(2-hydroxypropan-2-yl)thiazol-5-yl)(oxo)-λ^6-sulfaneylidene)-2-(6-ethyl-4-isopropyl-1,3-dihydroisobenzofuran-5-yl)acetamide], the IC50 lay within 5 to 30 µM.

With `CC(C)c1cc2c(cnn2C)c(C(C)C)c1CC(=O)N=S(N)(=O)c1cnc(C(C)(C)O)s1` (stereo not drawn) [Example 262, N-(amino(2-(2-hydroxypropan-2-yl)thiazol-5-yl)(oxo)-λ^6-sulfaneylidene)-2-(4,6-diisopropyl-1-methyl-1H-indazol-5-yl)acetamide], the IC50 was in the range of 5 to 30 µM.

Consider `CCc1cc2c(c(C(C)C)c1CC(=O)N=S(N)(=O)c1sc(C(C)(C)O)cc1F)COC2` (stereo not drawn) [Example 263, N-(amino(3-fluoro-5-(2-hydroxypropan-2-yl)thiophen-2-yl)(oxo)-λ^6-sulfaneylidene)-2-(6-ethyl-4-isopropyl-1,3-dihydroisobenzofuran-5-yl)acetamide], for which the IC50 is 1 to 5 µM.

Regarding `CCc1c2c(cc(C(C)C)c1CC(=O)N=S(N)(=O)c1sc(C(C)(C)O)cc1F)COC2` (stereo not drawn) [Example 264, N-(amino(3-fluoro-5-(2-hydroxypropan-2-yl)thiophen-2-yl)(oxo)-λ^6-sulfaneylidene)-2-(4-ethyl-6-isopropyl-1,3-dihydroisobenzofuran-5-yl)acetamide], the 50% inhibitory concentration (IC50) fell in the range of 0.2 to 1 µM.

For the molecule `CC(C)c1cc2c(c(C(C)C)c1CC(=O)N=S(N)(=O)c1cccc(C(C)(C)O)c1)COC2` (stereo not drawn) [Example 266, N-(amino (3-(2-hydroxypropan-2-yl)phenyl)(oxo)-λ^6-sulfaneylidene)-2-(4,6-diisopropyl-1,3-dihydroisobenzofuran-5-yl)acetamide], the IC50 was in the range of 1 to 5 µM.

As to `CC(C)c1cc2c(c(C(C)C)c1CC(=O)N=S(N)(=O)c1cnn3c1OCCC3)COC2` (stereo not drawn) [Example 267, N-(amino(6,7-dihydro-5H-pyrazolo[5,1-b][1,3]oxazin-3-yl)(oxo)-λ^6-sulfaneylidene)-2-(4,6-diisopropyl-1,3-dihydroisobenzofuran-5-yl)acetamide], the IC50 was 5 to 30 µM.

As to `CC(C)c1ccc(F)c(C(C)C)c1CC(=O)N=S(N)(=O)c1cnn2c1OCCC2` (stereo not drawn) [Example 268, N-(amino(6,7-dihydro-5H-pyrazolo[5,1b][1,3]oxazin-3-yl)(oxo)-λ^6-sulfaneylidene)-2-(3-fluoro-2,6-diisopropylphenyl)acetamide], the IC50 was in the range of 1 to 5 µM.

Take `CC(C)c1cc(F)cc(C(C)C)c1CC(=O)N=[S@](=O)(NC#N)c1ncc(C(C)(C)O)s1` [Example 341, (S)—N-(cyanamido(5-(2-hydroxypropan-2-yl)thiazol-2-yl)(oxo)-λ^6-sulfaneylidene)-2-(4-fluoro-2,6-diisopropylphenyl)acetamide]: the IC50 was 0.2 to 1 µM.

As for `CC(C)c1cc(F)cc(C(C)C)c1CC(=O)N=[S@@](=O)(NC#N)c1ncc(C(C)(C)O)s1` [Example 342, (R)-N-(cyanamido(5-(2-hydroxypropan-2-yl)thiazol-2-yl)(oxo)-λ^6-sulfaneylidene)-2-(4-fluoro-2,6-diisopropylphenyl)acetamide], the IC50 fell in the range of 1 to 5 µM.

Turning to `CC(C)c1cc(-c2ccc3ccccc3c2)cc(C(C)C)c1CC(=O)N=[S@](=O)(NC#N)c1cnc(C(C)(C)O)s1` [Example 345, (S)-N-(cyanamido(2-(2-hydroxypropan-2-yl)thiazol-5-yl)(oxo)-λ^6-sulfaneylidene)-2-(2,6-diisopropyl-4-(naphthalen-2-yl)phenyl)acetamide], the IC50 lay within 5 to 30 µM.

For `CC(C)c1cc(-c2ccc3ccccc3c2)cc(C(C)C)c1CC(=O)N=[S@@](=O)(NC#N)c1cnc(C(C)(C)O)s1` [Example 346, (R)-N-(cyanamido(2-(2-hydroxypropan-2-yl)thiazol-5-yl)(oxo)-λ^6-sulfaneylidene)-2-(2,6-diisopropyl-4-(naphthalen-2-yl)phenyl)acetamide], the IC50 was 0.2 to 1 µM.

Staying with this assay, now noted: Homo sapiens, THP-1, Table B2; 2% fetal bovine serum; cells printed as numeric bound; read-out: hTHP-1 IC50 (Average IC50 of compounds in hTHP-1 assay).
As to `COc1cc(-c2cccc(C(C)C)c2CC(=O)N=S(=O)(NC(N)=O)c2cnc([C@@](C)(O)CO)s2)ccn1` (stereo partly drawn) [Example 354, N-((2-((S)-1,2-dihydroxypropan-2-yl)thiazol-5-yl)(oxo)(ureido)-λ^6-sulfaneylidene)-2-(2-isopropyl-6-(2-methoxypyridin-4-yl)phenyl)acetamide], the IC50 is above 30 µM.

The same assay, now with this note: Homo sapiens, THP-1, Table B2; 2% fetal bovine serum; class symbols; read-out: hTHP-1 IC50 (Average IC50 of compounds in hTHP-1 assay).
For `CC(C)c1cc2c(c(C(C)C)c1CC(=O)N=S(N)(=O)c1ccn(CCO)n1)OC(F)(F)O2` (stereo not drawn) [Example 347, N-(amino(1-(2-hydroxyethyl)-1H-pyrazol-3-yl)(oxo)-λ^6-sulfaneylidene)-2-(2,2-difluoro-4,6-diisopropylbenzo[d][1,3]dioxol-5-yl)acetamide], the IC50 fell in the range of 1 to 5 µM.

On to `CC(C)c1cc(C#N)c(F)c(C(C)C)c1CC(=O)N=S(N)(=O)c1cnc(C(O)(CO)CO)s1` (stereo not drawn) [Example 350, N-(amino(oxo)(2-(1,2,3-trihydroxypropan-2-yl)thiazol-5-yl)-λ^6-sulfaneylidene)-2-(4-cyano-3-fluoro-2,6-diisopropylphenyl)acetamide], for which the half-maximal inhibitory concentration (IC50) is 0.2 to 1 µM.

For `CC(C)c1cc(C#N)c(F)c(C(C)C)c1CC(=O)N=S(=O)(NC#N)c1cnc(C(O)(CO)CO)s1` (stereo not drawn) [Example 360, N-(cyanamido(oxo)(2-(1,2,3-trihydroxypropan-2-yl)thiazol-5-yl)-λ^6-sulfaneylidene)-2-(4-cyano-3-fluoro-2,6-diisopropylphenyl)acetamide], the IC50 is 5 to 30 µM.

`CC(C)c1cc2c(c(C(C)C)c1CC(=O)N=[S@](=O)(NC#N)c1cnc(C(C)(C)O)s1)COC2=O` [Example 361, (S)-N-(cyanamido(2-(2-hydroxypropan-2-yl)thiazol-5-yl) (oxo)-λ^6-sulfaneylidene)-2-(4,6-diisopropyl-1-oxo-1,3-dihydroisobenzofuran-5-yl)acetamide]: the IC50 lay in the range of 1 to 5 µM.

`CC(C)(O)c1ncc([S@@](=O)(=NC(=O)Cc2c3c(cc4c2CC4)CCC3)NC#N)s1` [Example 362, (R)-N-(cyanamido(2-(2-hydroxypropan-2-yl)thiazol-5-yl) (oxo)-λ^6-sulfaneylidene)-2-(2,4,5,6-tetrahydro-1H-cyclobuta [f]inden-3-yl)acetamide]: the IC50 lay in the range of 1 to 5 µM.

As to `CC(C)(O)c1ncc([S@](=O)(=NC(=O)Cc2c3c(cc4c2CC4)CCC3)NC#N)s1` [Example 363, (S)-N-(cyanamido(2-(2-hydroxypropan-2-yl)thiazol-5-yl) (oxo)-λ^6-sulfaneylidene)-2-(2,4,5,6-tetrahydro-1H-cyclobuta [f]inden-3-yl)acetamide], the IC50 is 0.2 to 1 µM.

Values taken from US20230059136A1, “THE COMPOUNDS AND COMPOSITIONS FOR TREATING CONDITIONS ASSOCIATED WITH NLRP ACTIVITY” (Novartis AG, priority 2018, published 2023).
